{"source": "paper PMC12198282", "about": "“Application of a high-density microelectrode array assay using a 3D human iPSC-derived brain microphysiological system model for in vitro neurotoxicity screening of environmental compounds” (Archives of Toxicology, 2025)", "key": {"[1]": {"system": "human iPSC-derived 3D BrainSpheres", "assay": "BrainSphere MEA assay (HD-MEA, 13-day exposure, concentration-response)", "assay_type": "cell-based", "settings": "for AC50: concentration at 50% maximal activity, Supplement 3 prints it also for curves with hit call 0", "in_short": "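Recordings used a 5× RMS spike threshold and 600 s network scans of fixed electrode regions, each region clustered as one BrainSphere. Spheres had 7 weeks of differentiation and 48 h attachment on coated HD-MEA chips before day 0 of the 13-day concentration-response exposure. At least three independent plates were run.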"}, "2D rat cortical cultures": {"system": "2D rat cortical cultures", "settings": "cited from earlier work; for AC50: rNFA mc5"}, "[2]": {"settings": "AUC over 13-day exposure, tcplfit2"}, "[3]": {"settings": "tcplfit2 BMD at benchmark response (1.349*SD of baseline controls)"}, "[4]": {"settings": "tcplfit2 output ACC, activity cutoff in Supplemental Table 1"}, "[5]": {"settings": "top of winning model, response normalized as percent of vehicle control, negative = decrease"}}, "note": "Where two headings read alike, the source gives them in different places."}
{"compound": "Brc1ccc(Oc2ccc(Br)cc2Br)c(Br)c1", "note": "[BDE- 47]", "values": [{"measurement": "EC50", "setting": "[1]; 5th percentile across active AC50 values per chemical, read-out: Minimum potency", "result": 8.22, "unit": "µM"}, {"measurement": "Difference of minimum potency between BrainSphere MEA assay and rNFA", "setting": "[1]; 5th percentile of AC50 values by chemical, above 0.5 = more potent in the rNFA", "result": "more than 0.5 log10 µM"}, {"measurement": "hitc Mean.Spheroid.Burst.Duration", "setting": "[1]; [2]", "result": 1}, {"measurement": "hitc Mean.Spheroid.Burst.ISI", "setting": "[1]; [2]", "result": 1}, {"measurement": "hitc Mean.Spheroid.Burst.Peak.Firing.Rate", "setting": "[1]; [2]", "result": 1}, {"measurement": "hitc Mean.Spheroid.Firing.Rate", "setting": "[1]; [2]", "result": 1}, {"measurement": "hitc Mean.Spheroid.IBI", "setting": "[1]; [2]", "result": 0}, {"measurement": "hitc Mean.Spheroid.Nonburst.ISI", "setting": "[1]; [2]", "result": 0}, {"measurement": "hitc Mean.Spheroid.Spikes.per.Burst", "setting": "[1]; [2]", "result": 1}, {"measurement": "hitc Mean.Spheroid.Spikes.per.Burst.per.Electrode", "setting": "[1]; [2]", "result": 1}, {"measurement": "hitc Spheroid.Burst.Frequency", "setting": "[1]; [2]", "result": 1}, {"measurement": "hitc Spheroid.Spike.Amplitude.90th.Percentile", "setting": "[1]; [2]", "result": 1}, {"measurement": "AC50", "setting": "[1]; listed as BDE-47, read-out: ac50 Mean.Spheroid.Burst.Duration", "result": 14.4, "unit": "µM"}, {"measurement": "AC50", "setting": "[1]; listed as BDE-47, read-out: ac50 Mean.Spheroid.Burst.Peak.Firing.Rate", "result": 9.74, "unit": "µM"}, {"measurement": "AC50", "setting": "[1]; listed as BDE-47, read-out: ac50 Mean.Spheroid.Firing.Rate", "result": 7.84, "unit": "µM"}, {"measurement": "AC50", "setting": "[1]; listed as BDE-47, read-out: ac50 Spheroid.Burst.Frequency", "result": 8.92, "unit": "µM"}, {"measurement": "AC50", "setting": "[1]; listed as BDE-47, read-out: ac50 Spheroid.Spike.Amplitude.90th.Percentile", "result": 13.4, "unit": "µM"}, {"measurement": "AC50", "setting": "[1]; listed as BDE−47, read-out: ac50 Mean.Spheroid.Burst.Duration", "result": 14, "unit": "µM"}, {"measurement": "AC50", "setting": "[1]; listed as BDE−47, read-out: ac50 Mean.Spheroid.Burst.Peak.Firing.Rate", "result": 9.7, "unit": "µM"}, {"measurement": "AC50", "setting": "[1]; listed as BDE−47, read-out: ac50 Mean.Spheroid.Firing.Rate", "result": 7.8, "unit": "µM"}, {"measurement": "AC50", "setting": "[1]; listed as BDE−47, read-out: ac50 Spheroid.Burst.Frequency", "result": 8.9, "unit": "µM"}, {"measurement": "AC50", "setting": "[1]; listed as BDE−47, read-out: ac50 Spheroid.Spike.Amplitude.90th.Percentile", "result": 13, "unit": "µM"}, {"measurement": "AC50", "setting": "[1]; read-out: ac50 Mean.Spheroid.Burst.ISI", "result": 13.4, "unit": "µM"}, {"measurement": "AC50", "setting": "[1]; read-out: ac50 Mean.Spheroid.IBI", "result": 45, "unit": "µM"}, {"measurement": "AC50", "setting": "[1]; read-out: ac50 Mean.Spheroid.Spikes.per.Burst", "result": 14.3, "unit": "µM"}, {"measurement": "AC50", "setting": "[1]; read-out: ac50 Mean.Spheroid.Spikes.per.Burst.per.Electrode", "result": 8.93, "unit": "µM"}, {"measurement": "EC50", "setting": "[1]; mean across active AC50 values per chemical, read-out: Mean potency", "result": 11.4, "unit": "µM"}, {"measurement": "Percent active", "setting": "[1]; metrics active out of the total number of metrics screened", "result": 80, "unit": "%"}, {"measurement": "BMD Mean.Spheroid.Burst.Duration", "setting": "[1]; [3]", "result": 8.9, "unit": "µM"}, {"measurement": "BMD Mean.Spheroid.Burst.ISI", "setting": "[1]; [3]", "result": 7.8, "unit": "µM"}, {"measurement": "BMD Mean.Spheroid.Burst.Peak.Firing.Rate", "setting": "[1]; [3]", "result": 7.1, "unit": "µM"}, {"measurement": "BMD Mean.Spheroid.Firing.Rate", "setting": "[1]; [3]", "result": 7.9, "unit": "µM"}, {"measurement": "BMD Mean.Spheroid.IBI", "setting": "[1]; [3]", "result": 34, "unit": "µM"}, {"measurement": "BMD Mean.Spheroid.Nonburst.ISI", "setting": "[1]; [3]", "result": 48, "unit": "µM"}, {"measurement": "BMD Mean.Spheroid.Spikes.per.Burst", "setting": "[1]; [3]", "result": 12, "unit": "µM"}, {"measurement": "BMD Mean.Spheroid.Spikes.per.Burst.per.Electrode", "setting": "[1]; [3]", "result": 7, "unit": "µM"}, {"measurement": "BMD Spheroid.Burst.Frequency", "setting": "[1]; [3]", "result": 10, "unit": "µM"}, {"measurement": "BMD Spheroid.Spike.Amplitude.90th.Percentile", "setting": "[1]; [3]", "result": 6.7, "unit": "µM"}, {"measurement": "ACC Mean.Spheroid.Burst.Duration", "setting": "[1]; [4]", "result": 7.9, "unit": "µM"}, {"measurement": "ACC Mean.Spheroid.Burst.ISI", "setting": "[1]; [4]", "result": 4.8, "unit": "µM"}, {"measurement": "ACC Mean.Spheroid.Burst.Peak.Firing.Rate", "setting": "[1]; [4]", "result": 6.6, "unit": "µM"}, {"measurement": "ACC Mean.Spheroid.Firing.Rate", "setting": "[1]; [4]", "result": 11, "unit": "µM"}, {"measurement": "ACC Mean.Spheroid.IBI", "setting": "[1]; [4]", "result": 50, "unit": "µM"}, {"measurement": "ACC Mean.Spheroid.Nonburst.ISI", "setting": "[1]; [4]", "result": 55, "unit": "µM"}, {"measurement": "ACC Mean.Spheroid.Spikes.per.Burst", "setting": "[1]; [4]", "result": 17, "unit": "µM"}, {"measurement": "ACC Mean.Spheroid.Spikes.per.Burst.per.Electrode", "setting": "[1]; [4]", "result": 8.2, "unit": "µM"}, {"measurement": "ACC Spheroid.Burst.Frequency", "setting": "[1]; [4]", "result": 8.5, "unit": "µM"}, {"measurement": "ACC Spheroid.Spike.Amplitude.90th.Percentile", "setting": "[1]; [4]", "result": 9.5, "unit": "µM"}, {"measurement": "Top Mean.Spheroid.Burst.Duration", "setting": "[1]; [5]", "result": "−93"}, {"measurement": "Top Mean.Spheroid.Burst.ISI", "setting": "[1]; [5]", "result": "−93"}, {"measurement": "Top Mean.Spheroid.Burst.Peak.Firing.Rate", "setting": "[1]; [5]", "result": "−93"}, {"measurement": "Top Mean.Spheroid.Firing.Rate", "setting": "[1]; [5]", "result": "−92"}, {"measurement": "Top Mean.Spheroid.IBI", "setting": "[1]; [5]", "result": "−81"}, {"measurement": "Top Mean.Spheroid.Nonburst.ISI", "setting": "[1]; [5]", "result": "−74"}, {"measurement": "Top Mean.Spheroid.Spikes.per.Burst", "setting": "[1]; [5]", "result": "−93"}, {"measurement": "Top Mean.Spheroid.Spikes.per.Burst.per.Electrode", "setting": "[1]; [5]", "result": "−92"}, {"measurement": "Top Spheroid.Burst.Frequency", "setting": "[1]; [5]", "result": "−95"}, {"measurement": "Top Spheroid.Spike.Amplitude.90th.Percentile", "setting": "[1]; [5]", "result": "−22"}, {"measurement": "Hits", "setting": "[1]; total number of active endpoints out of 10 MEA activity metrics, 13-day exposure", "result": 8}, {"measurement": "AC50", "setting": "2D rat cortical cultures; aenm active_electrodes_number, read-out: ac50 CCTE_Shafer_MEA_dev_active_electrodes_number", "result": 10, "unit": "µM"}, {"measurement": "AC50", "setting": "2D rat cortical cultures; aenm bursting_electrodes_number, read-out: ac50 CCTE_Shafer_MEA_dev_bursting_electrodes_number", "result": 0.023, "unit": "µM"}, {"measurement": "AC50", "setting": "2D rat cortical cultures; aenm correlation_coefficient_mean, read-out: ac50 CCTE_Shafer_MEA_dev_correlation_coefficient_mean", "result": 4.26, "unit": "µM"}, {"measurement": "AC50", "setting": "2D rat cortical cultures; aenm mutual_information_norm, read-out: ac50 CCTE_Shafer_MEA_dev_mutual_information_norm", "result": 0.013, "unit": "µM"}, {"measurement": "AC50", "setting": "2D rat cortical cultures; aenm network_spike_peak, read-out: ac50 CCTE_Shafer_MEA_dev_network_spike_peak", "result": 10, "unit": "µM"}, {"measurement": "AC50", "setting": "2D rat cortical cultures; aenm per_burst_spike_percent, read-out: ac50 CCTE_Shafer_MEA_dev_per_burst_spike_percent", "result": 14.2, "unit": "µM"}, {"measurement": "AC50", "setting": "2D rat cortical cultures; aenm per_network_spike_spike_number_mean, read-out: ac50 CCTE_Shafer_MEA_dev_per_network_spike_spike_number_mean", "result": 4, "unit": "µM"}, {"measurement": "AC50", "setting": "2D rat cortical cultures; aenm per_network_spike_spike_percent, read-out: ac50 CCTE_Shafer_MEA_dev_per_network_spike_spike_percent", "result": 15.1, "unit": "µM"}, {"measurement": "AC50", "setting": "2D rat cortical cultures; aenm spike_duration_mean, read-out: ac50 CCTE_Shafer_MEA_dev_spike_duration_mean", "result": 15, "unit": "µM"}, {"measurement": "hitc CCTE_Shafer_MEA_dev_active_electrodes_number", "setting": "2D rat cortical cultures; rNFA mc5 hit call, aenm active_electrodes_number", "result": 1}, {"measurement": "hitc CCTE_Shafer_MEA_dev_burst_duration_mean", "setting": "2D rat cortical cultures; rNFA mc5 hit call, aenm burst_duration_mean", "result": 0}, {"measurement": "hitc CCTE_Shafer_MEA_dev_burst_rate", "setting": "2D rat cortical cultures; rNFA mc5 hit call, aenm burst_rate", "result": 0}, {"measurement": "hitc CCTE_Shafer_MEA_dev_bursting_electrodes_number", "setting": "2D rat cortical cultures; rNFA mc5 hit call, aenm bursting_electrodes_number", "result": 1}, {"measurement": "hitc CCTE_Shafer_MEA_dev_correlation_coefficient_mean", "setting": "2D rat cortical cultures; rNFA mc5 hit call, aenm correlation_coefficient_mean", "result": 1}, {"measurement": "hitc CCTE_Shafer_MEA_dev_firing_rate_mean", "setting": "2D rat cortical cultures; rNFA mc5 hit call, aenm firing_rate_mean", "result": 0}, {"measurement": "hitc CCTE_Shafer_MEA_dev_inter_network_spike_interval_mean", "setting": "2D rat cortical cultures; rNFA mc5 hit call, aenm inter_network_spike_interval_mean", "result": 0}, {"measurement": "hitc CCTE_Shafer_MEA_dev_interburst_interval_mean", "setting": "2D rat cortical cultures; rNFA mc5 hit call, aenm interburst_interval_mean", "result": 0}, {"measurement": "hitc CCTE_Shafer_MEA_dev_mutual_information_norm", "setting": "2D rat cortical cultures; rNFA mc5 hit call, aenm mutual_information_norm", "result": 1}, {"measurement": "hitc CCTE_Shafer_MEA_dev_network_spike_duration_std", "setting": "2D rat cortical cultures; rNFA mc5 hit call, aenm network_spike_duration_std", "result": 0}, {"measurement": "hitc CCTE_Shafer_MEA_dev_network_spike_number", "setting": "2D rat cortical cultures; rNFA mc5 hit call, aenm network_spike_number", "result": 0}, {"measurement": "hitc CCTE_Shafer_MEA_dev_network_spike_peak", "setting": "2D rat cortical cultures; rNFA mc5 hit call, aenm network_spike_peak", "result": 1}, {"measurement": "hitc CCTE_Shafer_MEA_dev_per_burst_interspike_interval", "setting": "2D rat cortical cultures; rNFA mc5 hit call, aenm per_burst_interspike_interval", "result": 0}, {"measurement": "hitc CCTE_Shafer_MEA_dev_per_burst_spike_percent", "setting": "2D rat cortical cultures; rNFA mc5 hit call, aenm per_burst_spike_percent", "result": 1}, {"measurement": "hitc CCTE_Shafer_MEA_dev_per_network_spike_spike_number_mean", "setting": "2D rat cortical cultures; rNFA mc5 hit call, aenm per_network_spike_spike_number_mean", "result": 1}, {"measurement": "hitc CCTE_Shafer_MEA_dev_per_network_spike_spike_percent", "setting": "2D rat cortical cultures; rNFA mc5 hit call, aenm per_network_spike_spike_percent", "result": 1}, {"measurement": "hitc CCTE_Shafer_MEA_dev_spike_duration_mean", "setting": "2D rat cortical cultures; rNFA mc5 hit call, aenm spike_duration_mean", "result": 1}]}
